Data taken from patent publication US20100137248A1, “BORON-CONTAINING COMPOUNDS, USES AND PREPARATION THEREOF” (DINOTEC INC., priority 2007, published 2010).

Test system: pain and/or inflammation in volunteers
Experiment: Tests on various subjects using Composition 2 (pain and/or inflammation)
Assay type: in vivo
Conditions: past medication of volunteers; testimony
Experimental: Composition 2 was tested on several subjects so as to verify its activity as anti-inflammatory agent and/or analgesic. As it can be seen from Table 1, test subjects having various inflammations or pain have been treated with Composition 2. In each case, a small amount of Composition 2, in the form of a cream, was applied to inflamed skin area by means of a short gentle rub.

## CC(=O)Oc1ccccc1C(=O)O [Aspirin, acetylsalicylic acid]
  gastric side effect reported by volunteers: severe gastric burning sensation
